{
  "source": "patent US20130296370A1",
  "about": "“COMPOSITION COMPRISING A PHOTOACTIVATABLE LARVICIDE” (UNIVERSITA DEGLI STUDI DI PADOVA, priority 2010, published 2013)",
  "key": {"[1]": {"assay": "Adsorption and release of C14 on powdered food pellet (PFP)", "type": "physicochemical", "conditions": "70 mg PFP in 500 ml 5 μM C14, 28° C., dark", "method": "C14 appeared to remain stably associated with food particles. Specifically, the C14 concentrations in the incubation buffers ranged from 0.01 μM (pH 7.0) to 0.024 μM (pH 9.5), corresponding to a release of just 2.14%-5.15% of the initial C14 amount.\nA standard food pellet for laboratory rodents, namely 4RF18 GLP (Mucedola Srl, Italy), commonly used as mosquito larval food, was crushed using an electric blender and then sieved (mesh diameter 500 μm) to obtain powdered food pellet (PFP) with final particle diameter of 5-500 μm diameter. C14-PFP complexes were obtained by incubating PFP in C14 solutions. The loading of C14 on PFP and the dynamics of its release from the C14-PFP complexes in water were analysed by spectrophotometric quantification. Specifically, to evaluate the C14 binding rate on PFP, 70 mg of PFP were incubated in 500 ml of a 5 μM solution of C14, at 28° C. for 5 days, in the dark. The same C14 solution without PFP served as control. The amount of unbound porphyrin was then estimated by measuring the absorbance at 423 nm of the supernatant of aliquots of the solutions collected at various incubation times and centrifuged at 10,000 rpm for 10 minutes. […] The amount of porphyrin released in the media from the formulate complexes was measured as described above. […]"}, "[2]": {"assay": "Singlet oxygen quantum yield (DMA chemical quenching)", "type": "physicochemical", "conditions": "DMA quenching in DMF; 400-800 nm, 100 mW/cm^2", "method": "The potential of the C14 porphyrin as a photosensitising agent was assessed on the basis of the quantum yield (φΔ) of singlet oxygen (^1O2) generation by the photoexcited triplet state of the porphyrin, namely the number of ^1O2 molecules generated per number of absorbed light photons. In the present study φΔ was measured by following the decrease in the fluorescence emission of 9,10-dimethyl-anthracene (DMA) upon its photosensitised conversion into the corresponding non-fluorescent 9,10-endoperoxide. […] In a typical experiment, a DMA solution (1.5 ml, initial absorbance around 1 at 380 nm) and porphyrin solution (1.5 ml, initial absorbance around 0.4 at 420 nm) in N,N-dimethyl-formamide (DMF) were placed in a quartz cuvette with a 1 cm optical path and irradiated with 400-800 nm light wavelengths (Teclas lamp, 100 mW cm-2) at 20° C.±2° C. under gentle magnetic stirring for different periods of time up to 20 min. The DMA fluorescence emission was recorded in the 380-550 nm wavelength range with excitation at 360 nm. The first-order rate constant of the photoprocess was obtained by plotting In F0/F as a function of the irradiation time t, where F0 and F represent the fluorescence intensity at time 0 and time t, respectively. The slope of the linear plot thus obtained allowed the rate constant of the photoprocess to be calculated. […]"}, "Aedes aegypti larvae": {"system": "Aedes aegypti larvae", "assay": "C14 porphyrin toxicity in the light", "type": "in vivo", "conditions": "5 μM C14", "method": "[…] After the irradiation period, larvae were kept in the dark and larval mortality was monitored for 6 days. Arithmetic means of percentages of dead larvae. Error bars represent standard deviations (n=3 replicates of 50 larvae each).\nIrradiation of mosquito larvae were performed by employing full spectrum visible light (400-800 nm) at a fluence rate of 1.0 to 4.0 mW/cm^2 using low-pressure mercury discharge fluorescent tubes TL-D Standard Colours (TL-D 58W/33-640 1SL, PHILIPS, EC). The intensity of the incident radiation was measured by an ILT1400A radiometer/photometer, equipped with a SED623/HNK15 multi-junction thermopile detector (International Light Technologies Inc., MA, USA).\nAll the experiments were carried out in a climatic chamber at 28±2° C. with a regulated photoperiod of 12 hours. Transparent plastic trays, containing 500 ml C14 solutions or spring water were employed. Typically, 5±1 days old, 3rd-early 4th instar Aedes aegypti larvae were used. All the experiments were replicated three times.\nFifty larvae were added to groups of trays containing 5 μM porphyrin C14 solution or spring water as a control. Trays were provided with PFP (wherein PFP means powdered food pellet (PFP) with final particle diameter of 5-500 μm diameter obtained by crushing a standard food pellet for laboratory rodents, namely 4RF18 GLP (Mucedola Srl, Italy) using an electric blender and then sieving at mesh diameter 500 μm) and incubated in the dark for 12 hours. […] After irradiation, the trays were returned in the dark, and larval mortality was assessed every 24 hours for the following 6 days. Larvae not moving or not showing a normally vigorous escaping response at probing were defined as dead or dying, respectively, and counted together. Pupae formed during the experiment were transferred to smaller trays containing spring water, within screened cages at normal colony photoperiod conditions, and monitored for mortality and adult emergence."}},
  "data": [
    {"molecule": "CCCCCCCCCCCCCC[n+]1ccc(-c2c3nc(c(-c4cc[n+](C)cc4)c4ccc([nH]4)c(-c4cc[n+](C)cc4)c4nc(c(-c5cc[n+](C)cc5)c5ccc2[nH]5)C=C4)C=C3)cc1.Cc1ccc(S(=O)(=O)[O-])cc1.Cc1ccc(S(=O)(=O)[O-])cc1.Cc1ccc(S(=O)(=O)[O-])cc1.Cc1ccc(S(=O)(=O)[O-])cc1", "note": "[C14, meso-tri(N-methyl-pyridyl), mono(N-tetradecyl-pyridyl)porphine]", "values": [
      {"measurement": "C14 bound to the PFP particles", "setting": "[1]; 24 hours", "result": 82, "unit": "%"},
      {"measurement": "C14 bound to the PFP particles", "setting": "[1]; 5 days", "result": 92, "unit": "%"},
      {"measurement": "quantum yield of ^1O2 photogeneration", "setting": "[2]", "result": 0.46},
      {"measurement": "larval mortality", "setting": "Aedes aegypti larvae; 6 hour-long light, count 24 hours later", "result": 100, "unit": "%"},
      {"measurement": "larval mortality", "setting": "Aedes aegypti larvae; dark-incubated 8 hours, 6 hour-long light 1.0-4.0 mW/cm^2, within irradiation period", "result": "97.99%±0.05%"},
      {"measurement": "larval mortality", "setting": "Aedes aegypti larvae; irradiated one hour, thereafter kept in the dark, day 6", "result": "92.1%±7.9%"}
    ]}
  ]
}
